# Test results from PubChem BioAssay (NCI).
#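 These data come from cells grown in 96-well plates and exposed to compound for 48 hours at five concentrations. Definition used: TGI = concentration required for complete inhibition of growth.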
# How the values were obtained:
# Test in all cases: NCI tumour cell line growth inhibition, 48 h
# [1] = test system: UACC-62 melanoma
# [2] = test system: MOLT-4 leukemia
# [3] = test system: HOP-92 NSCLC
# [4] = test system: HCT-15 colon
# [5] = test system: MDA-MB-435
# [6] = test system: MDA-N
# [7] = test system: K-562 leukemia
# [8] = test system: MDA-MB-231 breast
# [9] = test system: NCI-H226 lung
# [10] = test system: HL-60(TB) leukemia
# [11] = test system: RPMI-8226 leukemia
# [12] = test system: SN12C renal
# [13] = test system: CAKI-1 renal
# [14] = test system: SNB-19 CNS
# [15] = test system: EKVX NSCLC
# [16] = test system: CCRF-CEM leukemia
# [17] = test system: OVCAR-8 ovarian
# [18] = test system: IGROV1 ovarian
# [19] = test system: NCI-H522 lung
# [20] = test system: T-47D breast
SMILES,TGI [1] [µM],TGI [2] [µM],TGI [3] [µM],TGI [4] [µM],TGI [5] [µM],TGI [6] [µM],TGI [7] [µM],TGI [8] [µM],TGI [9] [µM],TGI [10] [µM],TGI [11] [µM],TGI [12] [µM],TGI [13] [µM],TGI [14] [µM],TGI [15] [µM],TGI [16] [µM],TGI [17] [µM],TGI [18] [µM],TGI [19] [µM],TGI [20] [µM]
O=C1/C(=c2\s/c(=C\c3ccccc3)c(=O)n2-c2ccccc2)SC(=S)N1c1ccccc1,> 100,> 100,> 100,> 100,> 100,> 100,> 100,57.1,89.4,> 100,> 100,> 100,> 100,> 100,> 100,> 100,> 100,87.2,–,–
NCCCOc1ccc([N+](=O)[O-])cc1Cl,> 100,> 100,> 100,> 100,–,–,> 100,–,> 100,> 100,> 100,–,> 100,> 100,–,> 100,> 100,> 100,18.2,–
c1cncc(C2(c3cc4ccccc4[nH]3)COCO2)c1 (configuration not stated),> 100,> 100,> 100,> 100,> 100,–,> 100,> 100,> 100,> 100,> 100,–,> 100,> 100,> 100,56.6,> 100,> 100,–,> 100
[N-]=[N+]=NC(CCl)c1cn([C@H]2C[C@H](O)[C@@H](CO)O2)c(=O)[nH]c1=O (some centres not stated),> 100,> 100,> 100,> 100,–,–,> 100,–,> 100,> 100,> 100,> 100,> 100,> 100,> 100,> 100,> 100,> 100,> 100,–
O=c1ccn2n1Cc1ccccc1C2,> 100,> 100,> 100,> 100,> 100,–,> 100,> 100,> 100,> 100,> 100,> 100,> 100,> 100,> 100,> 100,> 100,> 100,> 100,> 100
C/C(=C(/C)c1ccc(O)cc1)c1ccc(O)cc1,83.3,> 100,91.6,> 100,> 100,> 100,> 100,> 100,> 100,81.4,71.6,> 100,> 100,> 100,88.2,> 100,> 100,> 100,> 100,–
O=C(O)Cc1c(-c2ccc([N+](=O)[O-])cc2)c(=O)oc2cc(O)ccc12,> 100,26.8,–,75.7,93.9,> 100,> 100,> 100,> 100,39.4,61.7,> 100,–,> 100,83,88.8,74.1,> 100,91.3,–
COc1cc(C2=C(c3cc(OC)c4ccccc4c3OC)C(=O)c3ccccc3C2=O)c(OC)c2ccccc12,> 100,> 100,> 100,> 100,> 100,> 100,–,–,> 100,> 100,–,> 100,> 100,> 100,> 100,> 100,> 100,> 100,> 100,> 100
CN1C2=C(CC3=C1CC(C)(C)CC3=O)C(=O)CC(C)(C)C2,> 100,> 100,> 100,> 100,–,–,> 100,–,> 100,> 100,> 100,> 100,> 100,> 100,> 100,> 100,> 100,> 100,–,–
C[C@@]1(O)C[C@@H](N2C(=O)O[C@@H](c3ccccc3)[C@H]2c2ccccc2)[C@@H]1COCc1ccccc1,31.5,26.4,89,84.3,> 100,38.5,> 100,39.8,42.8,23.5,68.8,38.5,> 100,> 100,70.3,–,54,> 100,38.3,–
O=S1(=O)OCCOS(=O)(=O)C1S(=O)(=O)c1ccc2ccccc2c1,–,> 100,> 100,> 100,> 100,> 100,> 100,> 100,–,> 100,> 100,> 100,> 100,> 100,> 100,> 100,> 100,> 100,–,–
O=c1cc(-c2ccccc2)c2ccccc2[nH]1,> 100,> 100,48.1,> 100,–,–,> 100,–,99.8,> 100,> 100,> 100,90.2,–,–,> 100,> 100,> 100,> 100,–
S=c1nc(N2CCCCC2)c2cn[nH]c2[nH]1,> 100,–,–,> 100,> 100,–,> 100,> 100,> 100,69.9,> 100,> 100,> 100,> 100,> 100,> 100,> 100,56.5,41.4,> 100
